Assays:
[1] = target: T1, Short transient receptor potential channel 6 (Mus musculus, UniProt Q61143); test: Inhibition of mouse TRPC6 expressed in HEK293 cells co-expressing M5 receptor assessed as reduction in carbachol-induced membrane potential by FMP-2 dye based assay; format: cell-based
T1 sequence (Q61143 whole entry): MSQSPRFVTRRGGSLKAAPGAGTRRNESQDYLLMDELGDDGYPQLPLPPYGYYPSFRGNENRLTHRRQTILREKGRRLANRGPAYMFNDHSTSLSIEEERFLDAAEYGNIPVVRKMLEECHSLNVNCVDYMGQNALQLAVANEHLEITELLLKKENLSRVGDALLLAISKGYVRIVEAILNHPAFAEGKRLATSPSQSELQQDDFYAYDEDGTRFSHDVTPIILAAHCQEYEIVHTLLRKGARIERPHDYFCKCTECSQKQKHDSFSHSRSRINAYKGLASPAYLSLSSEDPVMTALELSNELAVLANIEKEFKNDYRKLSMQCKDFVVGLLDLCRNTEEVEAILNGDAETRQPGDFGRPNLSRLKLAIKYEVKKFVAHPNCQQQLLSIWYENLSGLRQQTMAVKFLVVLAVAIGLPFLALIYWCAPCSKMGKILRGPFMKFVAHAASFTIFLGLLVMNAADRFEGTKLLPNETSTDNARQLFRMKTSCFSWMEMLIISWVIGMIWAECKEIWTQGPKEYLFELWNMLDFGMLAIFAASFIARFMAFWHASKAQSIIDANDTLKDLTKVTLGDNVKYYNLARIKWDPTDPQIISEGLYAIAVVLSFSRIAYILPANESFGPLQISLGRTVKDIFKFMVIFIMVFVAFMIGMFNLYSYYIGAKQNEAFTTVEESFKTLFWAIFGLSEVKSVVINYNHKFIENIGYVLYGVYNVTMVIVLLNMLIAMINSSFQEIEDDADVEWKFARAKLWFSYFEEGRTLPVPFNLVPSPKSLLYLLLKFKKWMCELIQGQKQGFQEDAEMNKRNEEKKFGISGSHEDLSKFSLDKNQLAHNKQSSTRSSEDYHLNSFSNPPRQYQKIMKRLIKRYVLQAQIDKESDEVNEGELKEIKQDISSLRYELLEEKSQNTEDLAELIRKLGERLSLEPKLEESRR

[2] = target: T2, Short transient receptor potential channel 3 (Homo sapiens, UniProt Q13507); test: Inhibition of human TRPC3 expressed in HEK293 cells assessed as reduction in carbachol-induced membrane potential by FMP-2 dye based assay; format: cell-based
T2 sequence (Q13507 whole entry): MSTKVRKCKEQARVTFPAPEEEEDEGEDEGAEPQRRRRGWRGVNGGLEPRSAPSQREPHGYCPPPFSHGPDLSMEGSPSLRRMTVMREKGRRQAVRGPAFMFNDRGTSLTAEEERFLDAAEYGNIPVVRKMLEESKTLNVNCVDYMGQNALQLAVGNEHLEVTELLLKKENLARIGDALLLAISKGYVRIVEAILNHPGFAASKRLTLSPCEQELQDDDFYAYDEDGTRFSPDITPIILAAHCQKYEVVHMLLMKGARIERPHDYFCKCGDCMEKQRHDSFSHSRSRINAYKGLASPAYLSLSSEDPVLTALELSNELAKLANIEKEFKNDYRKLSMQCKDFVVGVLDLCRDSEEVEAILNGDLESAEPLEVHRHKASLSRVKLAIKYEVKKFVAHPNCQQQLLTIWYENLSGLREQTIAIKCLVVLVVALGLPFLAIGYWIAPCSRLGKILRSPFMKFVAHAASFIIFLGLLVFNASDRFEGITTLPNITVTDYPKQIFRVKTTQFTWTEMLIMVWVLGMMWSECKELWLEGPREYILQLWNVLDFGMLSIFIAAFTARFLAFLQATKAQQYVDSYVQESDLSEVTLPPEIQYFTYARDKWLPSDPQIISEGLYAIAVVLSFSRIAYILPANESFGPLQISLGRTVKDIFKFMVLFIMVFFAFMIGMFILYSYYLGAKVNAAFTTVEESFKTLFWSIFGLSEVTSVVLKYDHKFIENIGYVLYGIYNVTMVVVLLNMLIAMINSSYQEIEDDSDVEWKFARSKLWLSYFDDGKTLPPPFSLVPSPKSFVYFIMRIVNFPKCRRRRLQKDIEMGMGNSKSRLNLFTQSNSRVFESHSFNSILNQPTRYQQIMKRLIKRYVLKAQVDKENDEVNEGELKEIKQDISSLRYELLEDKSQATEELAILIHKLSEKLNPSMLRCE

[3] = Inhibition of human TRPC1/mouse TRPC4 beta expressed in HEK293 cells co-expressing M2 receptor assessed as reduction in […] membrane potential by FMP-2 dye based assay; format: cell-based
[4] = Drug concentration in C57BL/6 mouse serum at 10 mg/kg, ip after 2 hrs by UPLC method; format: ADME, organism-based; details: read-out: Drug uptake
[5] = Drug concentration in C57BL/6 mouse brain at 10 mg/kg, ip after 2 hrs by UPLC method; format: ADME, organism-based; details: read-out: Drug uptake
[6] = Drug concentration in C57BL/6 mouse cerebrospinal fluid at 10 mg/kg, ip after 2 hrs by UPLC method; format: ADME, organism-based; details: read-out: Drug uptake
[7] = target: T2, Short transient receptor potential channel 3; test: Inhibition of YFP-tagged TRPC3 (unknown origin) expressed in HEK293 cells assessed as reduction carbhocol-induced receptor operated Calcium influx after 5 mins by fura-2-AM dye based assay; format: cell-based
ORAI1/STIM1 = ORAI1/STIM1 (Rattus norvegicus, UniProt P84903+Q5M848); test: Inhibition of ORAI/STIM1 in thapsigargin treated rat RBL2H3 cells assessed as reduction in store-operated calcium entry after 5 mins by fura-2-AM dye based assay; format: cell-based
[8] = Selectivity ratio of ORAI/STIM1 in thapsigargin treated rat RBL2H3 cells to YFP-tagged TRPC3 (unknown origin) expressed in HEK293 cells; format: cell-based
[9] = target: T3, Short transient receptor potential channel 6 (Homo sapiens, UniProt Q9Y210); test: Inhibition of human TRPC6 expressed in HEK293 cells assessed as reduction in OAG-induced calcium influx preincubated for 2 mins followed by OAG stimulation by fluo-4/AM dye based FLIPR assay; format: cell-based
T3 sequence (Q9Y210 whole entry): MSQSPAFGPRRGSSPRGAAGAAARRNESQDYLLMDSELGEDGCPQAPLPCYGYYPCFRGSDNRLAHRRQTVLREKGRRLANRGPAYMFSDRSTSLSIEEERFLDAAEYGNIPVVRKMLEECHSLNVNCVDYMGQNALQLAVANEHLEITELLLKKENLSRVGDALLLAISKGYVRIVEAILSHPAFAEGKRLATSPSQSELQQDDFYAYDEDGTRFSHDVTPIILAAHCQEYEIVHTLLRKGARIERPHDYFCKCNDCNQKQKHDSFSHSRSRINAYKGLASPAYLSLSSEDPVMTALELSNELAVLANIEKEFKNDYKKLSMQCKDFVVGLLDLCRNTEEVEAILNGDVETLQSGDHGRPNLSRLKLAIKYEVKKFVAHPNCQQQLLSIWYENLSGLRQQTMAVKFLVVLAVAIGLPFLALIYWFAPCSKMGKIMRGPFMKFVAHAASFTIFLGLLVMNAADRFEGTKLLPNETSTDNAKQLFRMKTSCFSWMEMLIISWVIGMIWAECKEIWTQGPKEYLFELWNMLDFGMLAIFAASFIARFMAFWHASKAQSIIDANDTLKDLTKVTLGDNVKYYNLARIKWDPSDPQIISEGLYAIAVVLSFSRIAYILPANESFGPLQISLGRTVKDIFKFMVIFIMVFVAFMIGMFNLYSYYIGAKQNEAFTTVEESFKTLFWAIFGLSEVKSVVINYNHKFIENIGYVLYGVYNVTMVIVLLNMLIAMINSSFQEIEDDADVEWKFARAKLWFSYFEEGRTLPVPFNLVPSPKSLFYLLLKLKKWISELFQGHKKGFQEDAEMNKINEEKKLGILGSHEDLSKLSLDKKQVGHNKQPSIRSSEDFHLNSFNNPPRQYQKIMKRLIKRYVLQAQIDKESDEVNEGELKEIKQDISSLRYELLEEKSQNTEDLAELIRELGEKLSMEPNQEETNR

TRPC6 = test: Inhibition of TRPC6 expressed in HEK293 cells coexpressing M5 receptor assessed as reduction in TRPC6-mediated calcium influx by fluorescence method
[10] = target: T4, Short transient receptor potential channel 4 (Mus musculus, UniProt Q9QUQ5); test: Inhibition of mouse TRPC4 beta expressed in HEK293 cells co-expressing mu-opioid receptor assessed as reduction in DAMGO-induced intracellular calcium level in presence of mu-opioid receptor agonist DAMGO by Fluo-4AM dye based fluorescence assay; format: cell-based
T4 sequence (Q9QUQ5 whole entry): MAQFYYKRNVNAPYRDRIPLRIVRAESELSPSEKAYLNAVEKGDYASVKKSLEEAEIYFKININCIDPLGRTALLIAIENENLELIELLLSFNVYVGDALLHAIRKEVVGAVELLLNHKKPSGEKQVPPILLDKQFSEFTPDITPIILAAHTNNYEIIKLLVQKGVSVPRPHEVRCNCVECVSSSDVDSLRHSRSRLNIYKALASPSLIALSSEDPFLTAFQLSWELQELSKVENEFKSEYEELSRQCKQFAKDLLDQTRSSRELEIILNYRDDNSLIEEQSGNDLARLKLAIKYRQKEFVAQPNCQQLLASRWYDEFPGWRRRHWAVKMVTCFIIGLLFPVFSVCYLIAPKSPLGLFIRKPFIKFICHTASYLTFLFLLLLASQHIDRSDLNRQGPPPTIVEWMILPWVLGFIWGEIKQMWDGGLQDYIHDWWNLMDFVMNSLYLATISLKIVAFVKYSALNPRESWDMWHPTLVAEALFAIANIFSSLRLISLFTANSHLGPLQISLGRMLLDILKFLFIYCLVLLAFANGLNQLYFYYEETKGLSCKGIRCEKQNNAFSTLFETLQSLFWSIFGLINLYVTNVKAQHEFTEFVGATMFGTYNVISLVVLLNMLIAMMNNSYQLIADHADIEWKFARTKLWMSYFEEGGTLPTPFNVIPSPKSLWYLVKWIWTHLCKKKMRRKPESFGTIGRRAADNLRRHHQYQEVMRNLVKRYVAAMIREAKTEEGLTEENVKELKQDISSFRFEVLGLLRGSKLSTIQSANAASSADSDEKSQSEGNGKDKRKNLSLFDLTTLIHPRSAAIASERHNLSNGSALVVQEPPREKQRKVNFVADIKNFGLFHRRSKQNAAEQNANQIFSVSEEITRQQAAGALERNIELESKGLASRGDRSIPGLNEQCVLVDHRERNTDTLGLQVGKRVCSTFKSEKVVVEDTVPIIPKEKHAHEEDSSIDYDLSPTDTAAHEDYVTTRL

[11] = target: T1, Short transient receptor potential channel 6; test: Inhibition of HA-tagged mouse TRPC6 expressed in HEK293 cells assessed as reduction in acetylcholine-induced membrane potential by FLIPR membrane potential dye based assay; format: cell-based
Mus musculus = organism: Mus musculus; test: Selectivity ratio of mouse TRPC4 beta expressed in HEK293 cells co-expressing mu-opioid receptor to IC50 for mouse TRPC6 expressed in HEK293 cells; format: cell-based
Acetylcholinesterase = Acetylcholinesterase (Homo sapiens, UniProt P22303); test: Inhibition of human recombinant acetylcholinesterase expressed in HEK-293 cells using AMTch as substrate after 30 mins by spectrophotometric method
TRPC4/TRPC1 = TRPC4/TRPC1 (Homo sapiens, UniProt P48995+Q9UBN4); test: Antagonist activity at TRPC4/TRPC1 in human A498 cells assessed as reduction in englerin A-induced calcium entry preincubated for 30 mins followed by englerin A addition by fluorescence method; format: cell-based
Sequence of TRPC4/TRPC1 (Q9UBN4 whole entry): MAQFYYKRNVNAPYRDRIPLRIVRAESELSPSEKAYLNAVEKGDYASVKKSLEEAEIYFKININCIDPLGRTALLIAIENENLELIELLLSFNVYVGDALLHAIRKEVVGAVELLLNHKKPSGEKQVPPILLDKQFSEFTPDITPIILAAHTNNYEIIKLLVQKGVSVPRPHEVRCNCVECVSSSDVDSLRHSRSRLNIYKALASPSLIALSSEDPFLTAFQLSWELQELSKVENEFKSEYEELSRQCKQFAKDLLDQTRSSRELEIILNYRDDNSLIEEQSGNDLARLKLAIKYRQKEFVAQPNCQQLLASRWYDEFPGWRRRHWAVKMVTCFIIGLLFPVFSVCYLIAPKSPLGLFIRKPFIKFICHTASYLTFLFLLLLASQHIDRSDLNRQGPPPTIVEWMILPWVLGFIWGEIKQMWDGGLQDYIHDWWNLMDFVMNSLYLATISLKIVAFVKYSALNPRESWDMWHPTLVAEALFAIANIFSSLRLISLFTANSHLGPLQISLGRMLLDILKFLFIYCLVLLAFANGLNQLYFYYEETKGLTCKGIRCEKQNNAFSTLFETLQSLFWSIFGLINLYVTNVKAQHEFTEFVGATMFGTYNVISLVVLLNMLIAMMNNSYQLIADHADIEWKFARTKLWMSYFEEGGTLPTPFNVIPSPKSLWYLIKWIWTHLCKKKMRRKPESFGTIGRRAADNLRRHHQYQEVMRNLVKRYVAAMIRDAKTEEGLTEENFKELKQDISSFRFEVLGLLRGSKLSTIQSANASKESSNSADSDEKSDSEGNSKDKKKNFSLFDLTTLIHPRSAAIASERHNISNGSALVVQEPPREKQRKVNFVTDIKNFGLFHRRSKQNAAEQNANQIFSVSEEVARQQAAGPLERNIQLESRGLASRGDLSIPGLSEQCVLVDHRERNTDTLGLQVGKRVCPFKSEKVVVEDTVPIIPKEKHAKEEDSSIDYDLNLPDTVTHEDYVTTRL
Sequence of TRPC4/TRPC1 (P48995 whole entry): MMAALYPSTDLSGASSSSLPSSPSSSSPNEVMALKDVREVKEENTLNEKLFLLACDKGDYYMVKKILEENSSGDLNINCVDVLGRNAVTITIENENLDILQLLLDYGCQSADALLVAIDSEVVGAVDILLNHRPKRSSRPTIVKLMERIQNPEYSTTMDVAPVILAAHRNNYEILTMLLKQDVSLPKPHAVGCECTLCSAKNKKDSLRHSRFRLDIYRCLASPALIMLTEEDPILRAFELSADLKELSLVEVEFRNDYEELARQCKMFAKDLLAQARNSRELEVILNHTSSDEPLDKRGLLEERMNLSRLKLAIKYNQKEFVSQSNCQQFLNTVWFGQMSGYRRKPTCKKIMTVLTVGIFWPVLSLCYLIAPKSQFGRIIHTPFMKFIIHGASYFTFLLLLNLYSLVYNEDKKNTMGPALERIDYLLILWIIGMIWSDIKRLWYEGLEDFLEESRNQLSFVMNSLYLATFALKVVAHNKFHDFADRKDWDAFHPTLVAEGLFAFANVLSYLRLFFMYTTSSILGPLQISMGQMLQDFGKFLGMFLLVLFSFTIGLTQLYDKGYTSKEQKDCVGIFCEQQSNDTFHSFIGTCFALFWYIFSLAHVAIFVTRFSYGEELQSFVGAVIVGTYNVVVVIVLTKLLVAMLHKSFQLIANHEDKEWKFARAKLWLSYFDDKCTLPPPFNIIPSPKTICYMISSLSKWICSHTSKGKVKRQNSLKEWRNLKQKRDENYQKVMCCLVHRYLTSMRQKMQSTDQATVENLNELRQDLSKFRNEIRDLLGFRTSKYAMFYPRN

Sequence of Acetylcholinesterase (P22303 whole entry): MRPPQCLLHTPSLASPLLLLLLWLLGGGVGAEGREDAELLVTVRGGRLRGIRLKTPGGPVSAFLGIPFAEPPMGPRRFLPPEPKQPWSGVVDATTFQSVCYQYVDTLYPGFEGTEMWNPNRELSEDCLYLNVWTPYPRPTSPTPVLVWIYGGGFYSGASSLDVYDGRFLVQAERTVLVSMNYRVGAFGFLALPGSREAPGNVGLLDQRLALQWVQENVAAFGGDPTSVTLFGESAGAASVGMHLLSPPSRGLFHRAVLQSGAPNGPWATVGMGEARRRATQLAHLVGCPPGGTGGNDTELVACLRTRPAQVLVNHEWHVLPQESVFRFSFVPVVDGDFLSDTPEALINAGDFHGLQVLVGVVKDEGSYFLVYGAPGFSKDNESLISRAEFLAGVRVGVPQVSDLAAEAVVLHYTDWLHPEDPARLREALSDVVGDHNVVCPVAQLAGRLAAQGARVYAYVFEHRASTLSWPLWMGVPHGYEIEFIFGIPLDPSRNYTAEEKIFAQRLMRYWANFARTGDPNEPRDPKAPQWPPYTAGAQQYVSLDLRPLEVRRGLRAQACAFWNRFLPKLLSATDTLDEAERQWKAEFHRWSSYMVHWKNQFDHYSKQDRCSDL
Sequence of ORAI1/STIM1 (P84903 whole entry): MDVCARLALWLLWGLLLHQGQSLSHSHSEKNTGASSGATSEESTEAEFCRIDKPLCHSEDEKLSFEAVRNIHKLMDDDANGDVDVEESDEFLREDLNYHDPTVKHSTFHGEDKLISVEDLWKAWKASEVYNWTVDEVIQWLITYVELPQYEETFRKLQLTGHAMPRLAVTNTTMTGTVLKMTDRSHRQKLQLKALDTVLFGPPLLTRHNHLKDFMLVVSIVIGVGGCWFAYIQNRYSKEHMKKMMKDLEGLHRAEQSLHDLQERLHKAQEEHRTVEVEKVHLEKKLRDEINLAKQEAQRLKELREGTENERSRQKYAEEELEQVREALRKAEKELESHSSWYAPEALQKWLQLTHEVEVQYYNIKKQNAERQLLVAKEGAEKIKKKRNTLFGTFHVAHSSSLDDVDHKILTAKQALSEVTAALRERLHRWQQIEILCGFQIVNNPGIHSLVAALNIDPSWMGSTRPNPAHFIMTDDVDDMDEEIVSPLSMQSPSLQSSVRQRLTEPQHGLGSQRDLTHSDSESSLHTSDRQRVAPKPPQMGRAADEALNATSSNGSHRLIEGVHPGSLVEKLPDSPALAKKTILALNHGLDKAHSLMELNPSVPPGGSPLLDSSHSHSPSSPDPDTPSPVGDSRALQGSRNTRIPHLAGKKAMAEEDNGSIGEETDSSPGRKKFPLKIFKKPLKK
Sequence of ORAI1/STIM1 (Q5M848 whole entry): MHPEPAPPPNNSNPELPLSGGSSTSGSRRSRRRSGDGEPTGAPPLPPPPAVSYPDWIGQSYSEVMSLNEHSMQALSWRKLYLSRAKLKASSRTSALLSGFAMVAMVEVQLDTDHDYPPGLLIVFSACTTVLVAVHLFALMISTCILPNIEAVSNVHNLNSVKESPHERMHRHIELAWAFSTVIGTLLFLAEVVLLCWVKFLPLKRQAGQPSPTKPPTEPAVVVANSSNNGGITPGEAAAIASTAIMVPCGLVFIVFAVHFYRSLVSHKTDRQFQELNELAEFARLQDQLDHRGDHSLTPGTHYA

`CCCCNc1nc2ccccc2[nH]1` showed an IC50 [1] of 59.6 µM, an IC50 [2] of 48.6 µM and an IC50 [3] of 8.3 µM. It also gave a concentration at 2 h [4] of 2260 ng/mL, a concentration at 2 h [5] of 1100 ng/g and a concentration at 2 h [6] of 335 ng/mL.

Work on `O=C(Nc1ccc(-n2nc(C(F)(F)F)cc2C(F)(F)F)cc1)c1ccncc1F` yielded an IC50 [7] of 18.5 µM, an IC50 (ORAI1/STIM1) of 0.49 µM and a Ratio IC50 [8] of 37.

`C=C[C@@](C)(CC[C@H]1C(=C)C[C@H](OC(N)=O)[C@H]2C(C)(C)CCC[C@]12C)OC(C)=O` showed an IC50 [9] of 0.25 µM.

In the case of `C=C[C@](C)(O)CC[C@H]1C(=C)C[C@H](OC(N)=O)[C@H]2C(C)(C)CCC[C@]12C`, the IC50 [9] is reported as 0.17 µM.

Work on `Cc1nn2c(O)cc(C3CCN(C(=O)OC(C)(C)C)CC3)nc2c1-c1ccc(F)cc1` yielded an IC50 (TRPC6) of 8.4 µM.

`Cc1cc(N2CCCCC2)nc2ccccc12` gave an IC50 [10] of 0.96 µM, an IC50 [11] of 17.9 µM and a Ratio IC50 (Mus musculus) of 19. It also gave an IC50 (Acetylcholinesterase) of 0.84 µM.

With `CC(C)[C@]12C[C@@H](OCCO)[C@](C)(O1)[C@@H]1CC[C@@H](C)[C@H]1[C@@H]2OC(=O)/C=C/c1ccccc1` the IC50 (TRPC4/TRPC1) was 0.062 µM.
